For orientation: pIC50 means −log10 of the IC50, conventionally taken in molar units. A low value points to a large IC50.

The test system of experiment [1] is CCRL2. The settings on record: cited from earlier work; for calcium mobilization and chemotaxis through CCRL2: ref [20], not confirmed by other groups [23]. From the text:
(§1) […]. CMKLR1 is coupled to the Gi/o family of G proteins and in cells ...
On the technique in general: Calcium flux is commonly read through the fluorescence of an indicator in the cells.

Experiment [2] deals with CCRL2. In words: G protein BRET assay, CCRL2. Type of experiment: cell-based, human. The settings on record: CCRL2, HEK293T; 100 nM chemerin, 1 minute. The method, then:
(§2) G protein activation was assayed by BRET as previously described. Briefly, plasmids encoding G protein biosensors and receptors of interest were co-transfected into HEK293T cells by using the calcium phosphate method. Forty-eight hours after transfection, cells were washed twice with PBS, detached and resuspended in PBS plus 0.1% (w/v) glucose at room temperature. Cells were then distributed (80 μg of proteins per well) in a 96-well microplate (Optiplate, PerkinElmer). BRET^2 between RLuc8 and GFP10 was measured 1 min after addition of coelenterazine 400a/Deep blue C (5 μM, Gentaur). BRET readings were collected using an Infinite F200 reader (Tecan). The BRET signal was calculated as the ratio of emission of GFP10 (510–540 nm) to RLuc8 (370–450 nm).
(§3) As controls, cells expressing the α2c adrenergic receptor (Gαi/o) were stimulated with UK14304; cells expressing the AT1 angiotensin receptor (Gα11/q) were stimulated with angiotensin II; cells expressing the β2 adrenergic receptor (Gαs) were stimulated with isoproterenol; cells expressing thromboxane A2 receptor (Gα12/13) were stimulated with U46619. Data represent the mean ± S.E.M. of three to six independent experiments. Statistical significance was assessed using Tukey's test (***P < 0.0001).

Another experiment has as its system GPR44/CRTH2. In words: G protein BRET assay, negative control GPR44/CRTH2. The format is cell-based. To be noted: HEK293T, 100 nM chemerin, 1 minute. The method, then: as §2, §3
A general note: BRET reads energy transfer from a luciferase to a nearby fluorophore.

For a further experiment, the system named is GPR33. Description: G protein BRET assay, negative control GPR33. The format is cell-based. The settings on record: HEK293T, 100 nM chemerin, 1 minute. The method, then:
as §2, §3

In a further experiment the test system is FPR1. Description: G protein BRET assay, negative control FPR1. The format is cell-based. The settings on record: HEK293T, 100 nM chemerin, 1 minute. On the procedure:
as §2, §3

Experiment [3] deals with CCRL2. In words: β-arrestin BRET recruitment assay, CCRL2. Type of experiment: cell-based, human. The settings on record: β-arrestin1-Rluc or β-arrestin2-Rluc, CCRL2-Venus, HEK293T; 100 nM chemerin; 25°C. On the procedure: β-arrestin recruitment was measured by a BRET proximity assay as previously described. Briefly, plasmids encoding Rluc-β-arrestin 2 and receptors fused to Venus were cotransfected into HEK293T cells by using the calcium phosphate method. Twenty-four hours post-transfection, cells were collected and seeded in 96-well microplates (165306, Nunc) and cultured for an additional 24 h. Cells were then rinsed once with PBS and incubated in PBS plus 0.1% (w/v) glucose at 25°C to slow down kinetics of arrestin recruitment and improve temporal resolution. BRET^1 between RLuc and YFP was measured after the addition of coelenterazine h (5 μM, Promega). […] The BRET signal was calculated as the ratio of emission of YFP (520–570 nm) to RLuc (370–480 nm).
Fig 6 Recruitment of β-arrestins by CMKLR1 and GPR1. […] Data represent the mean ± S.E.M. of three independent experiments.

The test system of experiment [4] is CCRL2. Description: Intracellular calcium mobilization (aequorin), CCRL2. Type of experiment: cell-based, human. The settings on record: CCRL2, CHO-K1, aequorin. The method, then: Calcium mobilization was measured by an aequorin-based assay as previously described. Briefly, CHO-K1 cells stably expressing apoaequorin and the receptors of interest were incubated for 4 h in the dark in the presence of 5 μM coelenterazine h (Promega) and then diluted before use to reach the appropriate cell density.
(§4) A. Calcium mobilization was measured in CHO-K1 cells using the aequorin-based functional assay. […] The results were normalized for the basal luminescence of the cells in absence of agonist (0%) and the maximal response obtained for each cell line with 10 μM ATP (100%). […] Data represent the mean ± S.E.M. of three independent experiments C. […] Detection of total ERK1/2 by Western blotting was used to ascertain that an equal amount of material was loaded in each lane (lower panel). A typical experiment out of three performed independently is shown.

In experiment [5] the test system is CCRL2. In words: ERK1/2 phosphorylation in CHO-K1 cells, CCRL2. The format is cell-based, human. The settings on record: 300 nM chemerin, immunoblot. The method, then:
CHO-K1 and MEF cells stably expressing receptors of interest were starved for 12–18 h in serum-free medium prior to stimulation. […] Whole cell lysates were resolved on 10% Tris/Tricine polyacrylamide gels and transferred to nitrocellulose membranes. Phosphorylated ERK1/2 and total ERK1/2 were detected by using rabbit polyclonal anti-phospho-ERK1/2 (Cell Signaling #4370, 1:1,000) and anti-ERK1/2 (Cell Signaling #4695S, 1:2,000) antibodies. Chemiluminescent detection was performed using ECL-Plus reagent (Perkin Elmer).
as §4

The test system of a further experiment is CMKLR1. The settings on record: cited from earlier work.
Excerpt: as §1

In experiment [6] the test system is GPR1. To be noted: ref [13], cited from earlier work.
Excerpt: as §1

For experiment [7], the system named is leukocyte populations that express CMKLR1. To be noted: ex vivo; dendritic cells, macrophages and natural killer cells; ref [1],[8]–[10]; cited from earlier work.
Excerpt: as §1

Experiment [8] deals with CCRL2. Description: Radiolabelled chemerin internalization (acid-wash), CCRL2. The format is cell-based, human. The settings on record: CCRL2, CHO-K1; incubation at 28°C. On the procedure:
Cell surface receptor was detected by flow cytometry using a saturating concentration of antibodies specific for CMKLR1 (●), GPR1 (◯) or CCRL2 (△). Results were normalized for the fluorescence of unstimulated cells (100%) and for background fluorescence (0%). Data represent the mean ± S.E.M. of three independent experiments. […] Then, cells were either left at 4°C or shifted to 28°C to allow receptor internalization. After 90 minutes, cells were acid-washed and the amount of radioactivity remaining associated with the cells was measured. Data represent the mean ± S.E.M. of three independent experiments.

In experiment [9] the target is T1, CCRL2 (human, UniProt O00421 1-344).
T1 sequence (looked up): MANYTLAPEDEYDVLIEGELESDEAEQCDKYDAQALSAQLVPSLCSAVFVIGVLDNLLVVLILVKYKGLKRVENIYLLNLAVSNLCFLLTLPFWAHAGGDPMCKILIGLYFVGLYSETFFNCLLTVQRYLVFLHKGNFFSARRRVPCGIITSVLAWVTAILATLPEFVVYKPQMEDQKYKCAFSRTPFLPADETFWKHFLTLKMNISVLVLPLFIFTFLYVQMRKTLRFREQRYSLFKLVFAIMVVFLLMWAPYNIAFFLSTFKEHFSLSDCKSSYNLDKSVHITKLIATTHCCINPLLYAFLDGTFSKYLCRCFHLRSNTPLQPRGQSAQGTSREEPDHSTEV
In words: cell-based or functional assay.

For experiment [10], the target named is T2, GPR1 (human, UniProt P46091 1-355).
T2 construct: GPR1, human chemerin receptor, expressed on CHO-K1 cells; The functional rows with G protein biosensors (HEK293T, transfected) and with MEF cells also use this molecule; source: CHO-K1, stably expressing (Clone 8), on cells
T2 sequence (looked up): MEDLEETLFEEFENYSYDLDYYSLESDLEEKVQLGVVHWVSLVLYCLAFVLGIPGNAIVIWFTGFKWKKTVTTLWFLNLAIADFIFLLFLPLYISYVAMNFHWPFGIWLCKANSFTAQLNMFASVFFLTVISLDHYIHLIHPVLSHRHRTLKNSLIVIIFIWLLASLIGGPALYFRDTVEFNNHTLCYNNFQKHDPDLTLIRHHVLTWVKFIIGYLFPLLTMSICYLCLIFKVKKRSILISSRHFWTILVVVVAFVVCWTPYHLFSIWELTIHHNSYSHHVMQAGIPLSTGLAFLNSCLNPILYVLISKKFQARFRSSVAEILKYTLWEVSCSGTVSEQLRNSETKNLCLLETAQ
Description: radioligand binding; competition: CHO-K1 cells expressing the receptor with 0.1 nM [125I]-chemerin as tracer and increasing concentrations of unlabelled chemerin or chemerin 9; 50 mM HEPES pH 7.4, 1 mM CaCl2, 5 mM MgCl2, 250 mM sucrose, 0.5% BSA; 30 min at room temperature; filtration. To be noted: one partner purified.

For experiment [11], the target named is T1, CCRL2. Described as above. The settings on record: one partner purified.

Where only a bound is given, the exact number is not on record here.

For the molecule CCL2: chemokine, the “calcium mobilization and chemotaxis through CCRL2” value with CCRL2 [1] is “promotes calcium mobilization and chemotaxis”.

For the molecule CCL7: chemokine, the “calcium mobilization and chemotaxis through CCRL2” value in the experiment on CCRL2 [1] is “promotes calcium mobilization and chemotaxis”.

In the case of “Chemerin: small chemotactic protein, natural ligand of CMKLR1; purchased from R&D Systems”, the G protein activation result with CCRL2 [2] was “none of the G proteins tested were activated by GPR1 or CCRL2 upon chemerin stimulation”. Moreover, the “G protein BRET signal (Gαi/o biosensors)” value in the experiment on GPR44/CRTH2, with GPR33 and with FPR1 was “generated signals of much weaker magnitude” each time. Also, the β-arrestin recruitment entry in the experiment on CCRL2 [3] is reported as “CCRL2 does not recruit β-arrestins”. For the same molecule, the calcium mobilization entry in the experiment with CCRL2 [4] is on record as “generated no detectable signals”; in the experiment on GPR1 [6] (GPR1, recombinant cell lines), “activate weakly calcium mobilization in recombinant cell lines”. Moreover, the “phosphorylation of ERK1/2” value with CCRL2 [5] was “generated no detectable signals”. Moreover, the “calcium mobilization or ligand internalization” value in the experiment on CCRL2 [1] (CCRL2, chemerin, ref [11]) is “does not induce calcium mobilization or ligand internalization”. The “recruitment of β-arrestin2 to CMKLR1” value in the experiment on CMKLR1 (introduction, no reference given) is “induces the recruitment of β-arrestin2 to CMKLR1”. In addition, the “signaling in cells expressing CMKLR1” value in the experiment on CMKLR1 (ref [7]) is “inhibits cAMP production and promotes phospholipase C activation, IP3 release, calcium mobilization as well as activation of PI3K and MAPK pathways”. Besides, the “down-regulation of GPR1” value in the experiment with GPR1 [6] was “induces its rapid down-regulation”. In addition, the chemotaxis entry in [7] is listed as “promotes chemotaxis of leukocyte populations that express CMKLR1”.

For the molecule “[^125I]-chemerin: R&DSystems, custom labelling performed by Perkin Elmer; tracer”, the “radioactivity lost after acid-wash (chemerin internalization)” value with CCRL2 [8] is “nearly all the radioactivity associated to cells expressing CCLR2 was lost after the acid-wash procedure”.

B1: CCL8: chemokine (protein, UniProt P80075 24-99, looked up)
C-C motif chemokine 8: QPDSVSIPITCCFNVINRKIPIQRLESYTRITNIQCPKEAVIFKTKRGKEVCADPKERWVRDSMKHLDQIFQNLKP
For the molecule B1, the “calcium mobilization and chemotaxis through CCRL2” value with CCRL2 [1] is “promotes calcium mobilization and chemotaxis”.

B2: Chemerin (unlabelled) (ligand, human, UniProt Q99969 21-157, looked up)
chain: ELTEAQRRGLQVALEEFHKHPPVQWAFQETSVESAVDTPFPAGIFVRLEFKLQQTSCRKRDWKKPECKVRPNGRKRKCLACIKLGSEDKVLGRLVHCPIETQVLREAEEHQETQCLRVQRAGEDPHSFYFPGQFAFS
notes: chemerin, human; also called full length chemerin; full size chemerin; source: bought: R&D Systems
Turning to B2, in the experiment with CCRL2 [9], the “t1/2 of down-regulation of the receptor from the cell surface (FACS, CHO-K1, 100 nM chemerin)” value was greater than 1 h. The pIC50 in the experiment with GPR1 [10] worked out at 9.9; with CCRL2 [11], 9.1.

B3: CCL5: chemokine (protein, UniProt P13501 24-91, looked up)
C-C motif chemokine 5: SPYSSDTTPCCFAYIARPLPRAHIKEYFYTSGKCSNPAVVFVTRKNRQVCANPEKKWVREYINSLEMS
Turning to B3, in the experiment on CCRL2 [1], the “calcium mobilization and chemotaxis through CCRL2” value is “promotes calcium mobilization and chemotaxis”.
